Measured values reported in article PMC9508125, “The evolutionary advantage of an aromatic clamp in plant family 3 glycoside exo-hydrolases” (Nature Communications, 2022).
Where a chain is given by its changes, count along the chain named.

Tests used:
Type in all cases: biochemical
WT HvExoI = WT HvExoI (Hordeum vulgare, UniProt Q9XEI3); test: Steady-state apparent kinetic constants with substrates; conditions: substance is the substrate
Protocol: Dependency of activities of WT and mutant HvExoI on pH (McIlvaine buffers in the pH range of 3.5–8.5 at 30 °C) and temperature (100 mM sodium acetate buffer, pH 5.25, temperature range 0–80 °C, 15 min incubations) were determined using 0.2% (w/v) 4NP-Glc[21],[59]. Relative rates of hydrolysis of β-linked poly-, oligosaccharides, and aryl-glucosides were determined using near-homogenous HvExoI at 50 pmoles. […] Kinetic parameters were calculated from the analyses of Michaelis-Menten plots with Grafit 7.0.3[62] and processed by a proportional weighted fit, using nonlinear regression. The relative rates of hydrolysis, kinetic, and inhibition data were rounded to one or two decimal points (Supplementary Tables 2–4).

HvExoI W434H mutant = target: T1, HvExoI W434H mutant (Hordeum vulgare, UniProt Q9XEI3, W459H); test: Relative rates of hydrolysis of poly-, oligosaccharides and aryl-glycosides; conditions: substance is the substrate
T1 sequence (Q9XEI3 26-630 W459H): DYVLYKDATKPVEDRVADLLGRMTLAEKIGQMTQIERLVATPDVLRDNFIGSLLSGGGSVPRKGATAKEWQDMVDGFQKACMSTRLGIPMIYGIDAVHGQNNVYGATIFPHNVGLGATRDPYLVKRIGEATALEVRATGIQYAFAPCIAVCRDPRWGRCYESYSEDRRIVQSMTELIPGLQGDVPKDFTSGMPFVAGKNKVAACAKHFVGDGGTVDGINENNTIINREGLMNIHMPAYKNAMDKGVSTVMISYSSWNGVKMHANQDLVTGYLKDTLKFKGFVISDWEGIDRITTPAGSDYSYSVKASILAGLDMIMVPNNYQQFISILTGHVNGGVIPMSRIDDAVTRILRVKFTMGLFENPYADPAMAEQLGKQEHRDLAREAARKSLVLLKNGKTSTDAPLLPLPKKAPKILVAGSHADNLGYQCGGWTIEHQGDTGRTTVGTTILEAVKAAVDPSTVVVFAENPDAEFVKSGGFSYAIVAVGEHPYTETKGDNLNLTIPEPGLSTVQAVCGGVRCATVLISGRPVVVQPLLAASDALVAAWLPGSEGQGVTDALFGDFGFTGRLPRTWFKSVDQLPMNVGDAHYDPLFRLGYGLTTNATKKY
In short: (§1)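 Steady-state apparent constants are derived from proportionally weighted nonlinear regression of Michaelis-Menten data. Rates of hydrolysis of polysaccharides, oligosaccharides and aryl-glucosides are relative values obtained with 50 pmoles of near-homogeneous HvExoI. The pH and temperature dependence was tested on 0.2% (w/v) 4NP-Glc.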

HvExoI W434A mutant = target: T2, HvExoI W434A mutant (Hordeum vulgare, UniProt Q9XEI3, W459A); test: as above; conditions: substance is the substrate, nd = activity not detected
T2 sequence (Q9XEI3 26-630 W459A): T1 sequence (Q9XEI3 26-630 W459H) with H434A
In short: as §1

HvExoI W286Y mutant = target: T3, HvExoI W286Y mutant (Hordeum vulgare, UniProt Q9XEI3, W311Y); test: as above; conditions: substance is the substrate, nd = activity not detected
T3 sequence (Q9XEI3 26-630 W311Y): T1 sequence (Q9XEI3 26-630 W459H) with W286Y, H434W
In short: as §1

HvExoI W434F mutant = target: T4, HvExoI W434F mutant (Hordeum vulgare, UniProt Q9XEI3, W459F); test: as above; conditions: substance is the substrate, nd = activity not detected
T4 sequence (Q9XEI3 26-630 W459F): T1 sequence (Q9XEI3 26-630 W459H) with H434F
In short: as §1

WT HvExoI, sequence (Q9XEI3 entry or part of it): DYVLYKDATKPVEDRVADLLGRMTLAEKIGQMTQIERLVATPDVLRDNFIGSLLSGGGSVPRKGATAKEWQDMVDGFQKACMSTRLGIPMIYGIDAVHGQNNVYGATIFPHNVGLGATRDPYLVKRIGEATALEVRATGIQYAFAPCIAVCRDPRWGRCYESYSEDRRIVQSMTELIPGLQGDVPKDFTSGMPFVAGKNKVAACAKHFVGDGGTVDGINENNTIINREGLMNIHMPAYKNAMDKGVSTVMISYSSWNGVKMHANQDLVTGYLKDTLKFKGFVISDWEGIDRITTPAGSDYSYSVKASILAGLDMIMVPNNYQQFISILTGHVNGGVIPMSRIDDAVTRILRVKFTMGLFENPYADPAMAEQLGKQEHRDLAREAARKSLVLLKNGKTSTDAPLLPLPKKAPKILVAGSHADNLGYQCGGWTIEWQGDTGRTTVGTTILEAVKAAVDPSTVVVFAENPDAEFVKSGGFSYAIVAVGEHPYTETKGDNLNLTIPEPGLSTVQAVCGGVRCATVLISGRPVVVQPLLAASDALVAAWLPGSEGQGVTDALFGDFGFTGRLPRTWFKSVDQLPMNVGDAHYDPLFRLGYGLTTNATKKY

Compound	Km (WT HvExoI) [µM]	kcat (WT HvExoI) [s⁻¹]	Activity (relative rate of hydrolysis) (HvExoI W434H mutant) [μmole/min per mg protein]	Activity (relative rate of hydrolysis) (HvExoI W434A mutant)	Activity (relative rate of hydrolysis) (HvExoI W286Y mutant) [μmole/min per mg protein]	Activity (relative rate of hydrolysis) (HvExoI W434F mutant) [μmole/min per mg protein]
OC[C@H]1O[C@@H](O[C@H]2[C@H](O)[C@@H](CO)OC(O)[C@@H]2O)[C@H](O)[C@@H](O)[C@@H]1O (stereo partly shown) [Laminaribiose]	1300 ± 120	54.2 ± 6.9	0.8 ± 0.04	0.5 ± 0.03 μmole/min per mg protein	13.9 ± 0.1	14.9 ± 1.7
OC[C@H]1O[C@@H](O[C@@H]2[C@@H](O)[C@H](O[C@H]3[C@H](O)[C@@H](CO)OC(O)[C@@H]3O)O[C@H](CO)[C@H]2O)[C@H](O)[C@@H](O)[C@@H]1O (stereo partly shown) [Laminaritriose]			1.5 ± 0.04	0.9 ± 0.1 μmole/min per mg protein	14.1 ± 0.4	18.4 ± 1.4
laminarin	200 ± 20	42.1 ± 7.6	0.7 ± 0.02	no activity	14.2 ± 1.3	7.8 ± 0.4
